US20180140602A1, “COMBINATION OF CHIMERIC ANTIGEN RECEPTOR THERAPY AND AMINO PYRIMIDINE DERIVATIVES” (Novartis AG, priority 2015, published 2018)

target: T1, BTK (Homo sapiens, UniProt Q06187); experiment: Inhibition of BTK activity in blood (anti-IgM/IL-4 B cell activation, CD69); assay type: cell-based; conditions: human whole blood, anti-IgM/IL-4, CD69 on CD19+ cells, 20 hours;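 further: heparinized blood from healthy donors, read by flow cytometry, with inhibition derived from the percentage of CD69-positive cells within the CD19-positive lymphocyte gate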
T1 construct: Whole blood was collected with written consent from healthy volunteers by venipuncture into sodium heparin vials; endogenous in cells; host or cells: B cells in heparinised whole blood of healthy human volunteers
T1 sequence (Q06187 whole entry): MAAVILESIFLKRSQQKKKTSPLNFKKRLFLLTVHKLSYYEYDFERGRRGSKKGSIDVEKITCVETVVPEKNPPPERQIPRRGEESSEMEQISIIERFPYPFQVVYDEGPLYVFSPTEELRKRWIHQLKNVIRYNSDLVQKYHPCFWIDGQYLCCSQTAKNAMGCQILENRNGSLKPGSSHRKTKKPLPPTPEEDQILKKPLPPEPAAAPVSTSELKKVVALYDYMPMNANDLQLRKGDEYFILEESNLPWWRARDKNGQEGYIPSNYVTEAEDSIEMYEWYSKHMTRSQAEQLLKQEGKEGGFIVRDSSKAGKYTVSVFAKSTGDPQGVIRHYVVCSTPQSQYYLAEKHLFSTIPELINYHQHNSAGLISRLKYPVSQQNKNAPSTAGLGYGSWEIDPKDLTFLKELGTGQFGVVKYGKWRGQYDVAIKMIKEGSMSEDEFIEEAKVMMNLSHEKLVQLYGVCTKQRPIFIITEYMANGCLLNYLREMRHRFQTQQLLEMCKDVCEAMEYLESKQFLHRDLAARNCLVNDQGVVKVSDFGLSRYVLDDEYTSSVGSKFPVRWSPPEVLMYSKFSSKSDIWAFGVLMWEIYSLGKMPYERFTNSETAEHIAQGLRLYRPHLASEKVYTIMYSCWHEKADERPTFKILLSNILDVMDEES

SMILES	IC50 [nM]
C/C=C/C(=O)N1CC(Oc2c(N)ncnc2-c2cc(F)cc(NC(=O)c3ccc(C4CC4)cc3F)c2C)C1 [Example 2, (E)-N-(3-(6-Amino-5-((1-(but-2-enoyl)azetidin-3-yl)oxy)pyrimidin-4-yl)-5-fluoro-2-methylphenyl)-4-cyclopropyl-2-fluorobenzamide]	1110
C#CC(=O)N1CC(Oc2c(N)ncnc2-c2cc(F)cc(NC(=O)c3ccc(C4CC4)cc3F)c2C)C1 [Example 3, N-(3-(6-Amino-5-((1-propioloylazetidin-3-yl)oxy)pyrimidin-4-yl)-5-fluoro-2-methylphenyl)-4-cyclopropyl-2-fluorobenzamide]	124
CC#CC(=O)N1CC(Oc2c(N)ncnc2-c2cc(F)cc(NC(=O)c3ccc(C4CC4)cc3F)c2C)C1 [Example 4, N-(3-(6-Amino-5-((1-(but-2-ynoyl)azetidin-3-yl)oxy)pyrimidin-4-yl)-5-fluoro-2-methylphenyl)-4-cyclopropyl-2-fluorobenzamide]	376
COC/C=C/C(=O)N(C)CCOc1c(N)ncnc1-c1cc(F)cc(NC(=O)c2ccc(C3CC3)cc2F)c1C [Example 9, (E)-N-(3-(6-Amino-5-(2-(4-methoxy-N-methylbut-2-enamido)ethoxy)pyrimidin-4-yl)-5-fluoro-2-methylphenyl)-4-cyclopropyl-2-fluorobenzamide]	240
Cc1c(NC(=O)c2ccc(C3CC3)cc2F)cc(F)cc1-c1ncnc(N)c1OCCN(C)C(=O)C1CO1 (stereo not shown) [Example 11, N-(2-((4-Amino-6-(3-(4-cyclopropyl-2-fluorobenzamido)-5-fluoro-2-methylphenyl)pyrimidin-5-yl)oxy)ethyl)-N-methyloxirane-2-carboxamide]	323
C=CC(=O)N(C)CCOc1c(N)ncnc1-c1cccc(-n2ccc3cc(C4CC4)cc(F)c3c2=O)c1 [Example 12, N-(2-((4-Amino-6-(3-(6-cyclopropyl-8-fluoro-1-oxoisoquinolin-2(1H)-yl)phenyl)pyrimidin-5-yl)oxy)ethyl)-N-methylacrylamide]	459
C=CC(=O)N(CCF)CCOc1c(N)ncnc1-c1cc(F)cc(NC(=O)c2ccc(C3CC3)cc2F)c1C [Example 15, N-(3-(6-Amino-5-(2-(N-(2-fluoroethyl)acrylamido)ethoxy)pyrimidin-4-yl)-5-fluoro-2-methylphenyl)-4-cyclopropyl-2-fluorobenzamide]	29
C=CC(=O)NC1(COc2c(N)ncnc2-c2cc(F)cc(NC(=O)c3ccc(C4CC4)cc3F)c2C)CC1 [Example 16, N-(3-(5-((1-Acrylamidocyclopropyl)methoxy)-6-aminopyrimidin-4-yl)-5-fluoro-2-methylphenyl)-4-cyclopropyl-2-fluorobenzamide]	558
C=CC(=O)N[C@@H](C)COc1c(N)ncnc1-c1cc(F)cc(NC(=O)c2ccc(C3CC3)cc2F)c1C [Example 17, (S)—N-(3-(5-(2-Acrylamidopropoxy)-6-aminopyrimidin-4-yl)-5-fluoro-2-methylphenyl)-4-cyclopropyl-2-fluorobenzamide]	246
CC#CC(=O)N[C@@H](C)COc1c(N)ncnc1-c1cc(F)cc(NC(=O)c2ccc(C3CC3)cc2F)c1C [Example 18]	419
C=CC(=O)N(C)[C@@H](C)COc1c(N)ncnc1-c1cc(F)cc(NC(=O)c2ccc(C3CC3)cc2F)c1C [Example 19, (S)—N-(3-(6-Amino-5-(2-(N-methylacrylamido)propoxy)pyrimidin-4-yl)-5-fluoro-2-methylphenyl)-4-cyclopropyl-2-fluorobenzamide]	136
CC#CC(=O)N(C)[C@@H](C)COc1c(N)ncnc1-c1cc(F)cc(NC(=O)c2ccc(C3CC3)cc2F)c1C [Example 20]	330
CC#CC(=O)N1CCC[C@H]1COc1c(N)ncnc1-c1cc(F)cc(NC(=O)c2ccc(C3CC3)cc2F)c1C [Example 23]	57
C=CC(=O)N1CCC[C@H]1COc1c(N)ncnc1-c1cc(F)cc(N2CCc3cc(C4CC4)ccc3C2=O)c1CO [Example 24, (S)-2-(3-(5-((1-Acryloylpyrrolidin-2-yl)methoxy)-6-aminopyrimidin-4-yl)-5-fluoro-2-(hydroxymethyl)phenyl)-6-cyclopropyl-3,4-dihydroisoquinolin-1(2H)-one]	32
C=CC(=O)N(C)CCOc1c(N)ncnc1-c1cc(F)cc(N2CCc3cc(C4CC4)ccc3C2=O)c1CO [Example 25, N-(2-((4-Amino-6-(3-(6-cyclopropyl-1-oxo-3,4-dihydroisoquinolin-2(1H)-yl)-5-fluoro-2-(hydroxymethyl)phenyl)pyrimidin-5-yl)oxy)ethyl)-N-methylacrylamide]	65
C=CC(=O)N1C[C@H](OC)C[C@H]1COc1c(N)ncnc1-c1cc(F)cc(NC(=O)c2ccc(C3CC3)cc2F)c1C [Example 26, N-(3-(5-(((2S,4R)-1-Acryloyl-4-methoxypyrrolidin-2-yl)methoxy)-6-aminopyrimidin-4-yl)-5-fluoro-2-methylphenyl)-4-cyclopropyl-2-fluorobenzamide]	51
CC#CC(=O)N1C[C@H](OC)C[C@H]1COc1c(N)ncnc1-c1cc(F)cc(NC(=O)c2ccc(C3CC3)cc2F)c1C [Example 27, N-(3-(6-Amino-5-(((2S,4R)-1-(but-2-ynoyl)-4-methoxypyrrolidin-2-yl)methoxy)pyrimidin-4-yl)-5-fluoro-2-methylphenyl)-4-cyclopropyl-2-fluorobenzamide]	76
C=CC(=O)N1C[C@H](OC)C[C@H]1COc1c(N)ncnc1-c1cc(F)cc(N2CCc3cc(C4CC4)ccc3C2=O)c1CO [Example 28, 2-(3-(5-(((2S,4R)-1-Acryloyl-4-methoxypyrrolidin-2-yl)methoxy)-6-aminopyrimidin-4-yl)-5-fluoro-2-(hydroxymethyl)phenyl)-6-cyclopropyl-3,4-dihydroisoquinolin-1(2H)-one]	33
C=CC(=O)N1C[C@@H](OC)C[C@H]1COc1c(N)ncnc1-c1cc(F)cc(NC(=O)c2ccc(C3CC3)cc2F)c1C [Example 29, N-(3-(5-(((2S,4S)-1-Acryloyl-4-methoxypyrrolidin-2-yl)methoxy)-6-aminopyrimidin-4-yl)-5-fluoro-2-methylphenyl)-4-cyclopropyl-2-fluorobenzamide]	134
CC#CC(=O)N1C[C@@H](OC)C[C@H]1COc1c(N)ncnc1-c1cc(F)cc(NC(=O)c2ccc(C3CC3)cc2F)c1C [Example 30, N-(3-(6-Amino-5-(((2S,4S)-1-(but-2-ynoyl)-4-methoxypyrrolidin-2-yl)methoxy)pyrimidin-4-yl)-5-fluoro-2-methylphenyl)-4-cyclopropyl-2-fluorobenzamide]	222
C=CC(=O)N1C[C@H](F)C[C@H]1COc1c(N)ncnc1-c1cc(F)cc(NC(=O)c2ccc(C3CC3)cc2F)c1C [Example 31, N-(3-(5-(((2S,4R)-1-Acryloyl-4-fluoropyrrolidin-2-yl)methoxy)-6-aminopyrimidin-4-yl)-5-fluoro-2-methylphenyl)-4-cyclopropyl-2-fluorobenzamide]	25
CC#CC(=O)N1C[C@H](F)C[C@H]1COc1c(N)ncnc1-c1cc(F)cc(NC(=O)c2ccc(C3CC3)cc2F)c1C [Example 32, N-(3-(6-Amino-5-(((2S,4R)-1-(but-2-ynoyl)-4-fluoropyrrolidin-2-yl)methoxy)pyrimidin-4-yl)-5-fluoro-2-methylphenyl)-4-cyclopropyl-2-fluorobenzamide]	55
C#CC(=O)N1CC[C@H]1COc1c(N)ncnc1-c1cc(F)cc(NC(=O)c2ccc(C3CC3)cc2F)c1C [Example 34]	208
C=CC(=O)N1CC[C@H]1COc1c(N)ncnc1-c1cc(F)cc(N2CCc3cc(C4CC4)ccc3C2=O)c1CO [Example 35, (S)-2-(3-(5-((1-Acryloylazetidin-2-yl)methoxy)-6-aminopyrimidin-4-yl)-5-fluoro-2-(hydroxymethyl)phenyl)-6-cyclopropyl-3,4-dihydroisoquinolin-1(2H)-one]	72
C=CC(=O)N1CCC[C@@H](COc2c(N)ncnc2-c2cc(F)cc(NC(=O)c3ccc(C4CC4)cc3F)c2C)C1 [Example 37, (R)—N-(3-(5-((1-Acryloylpiperidin-3-yl)methoxy)-6-aminopyrimidin-4-yl)-5-fluoro-2-methylphenyl)-4-cyclopropyl-2-fluorobenzamide]	968
C=CC(=O)N1CC[C@H](OC)[C@H]1COc1c(N)ncnc1-c1cc(F)cc(NC(=O)c2ccc(C3CC3)cc2F)c1C [Example 38, N-(3-(5-(((2R,3S)-1-Acryloyl-3-methoxypyrrolidin-2-yl)methoxy)-6-aminopyrimidin-4-yl)-5-fluoro-2-methylphenyl)-4-cyclopropyl-2-fluorobenzamide]	70
C=CC(=O)N1C[C@H](C#N)C[C@H]1COc1c(N)ncnc1-c1cc(F)cc(NC(=O)c2ccc(C3CC3)cc2F)c1C [Example 39, N-(3-(5-(((2S,4R)-1-Acryloyl-4-cyanopyrrolidin-2-yl)methoxy)-6-aminopyrimidin-4-yl)-5-fluoro-2-methylphenyl)-4-cyclopropyl-2-fluorobenzamide]	176
C=CC(=O)N1C[C@@H](C#N)C[C@H]1COc1c(N)ncnc1-c1cc(F)cc(NC(=O)c2ccc(C3CC3)cc2F)c1C [Example 40, N-(3-(5-(((2S,4S)-1-Acryloyl-4-cyanopyrrolidin-2-yl)methoxy)-6-aminopyrimidin-4-yl)-5-fluoro-2-methylphenyl)-4-cyclopropyl-2-fluorobenzamide]	80
